# Where two headings read alike, the source gives them in different places.
# How the values were obtained:
# [1] = molecular target: PI3Kδ (Homo sapiens, UniProt O00329); experiment: PI3K Biochemical Assay; settings: PIP2 used as substrate; read-out: PI3K biochemical IC50 values P13Kδ
# Protocol: (§1) PI3Kα activity is measured as the percent of ATP consumed following the kinase reaction using luciferase-luciferin-coupled chemiluminescence. Reactions were conducted in 384-well white, medium binding microtiter plates (Greiner). Kinase reactions were initiated by combining test compounds, ATP, substrate (PIP2), and kinase in a 20 μL volume in a buffer solution. The standard PI3Kalpha assay buffer is composed 50 mM Tris, pH 7.5, 1 mM EGTA, 10 mM MgCl2, 1 mM DTT and 0.03% CHAPS. The standard assay concentrations for enzyme, ATP, and substrate are 1.5 nM, 1 μM, and 10 μM, respectively. The reaction mixture was incubated at ambient temperature for approximately 2 h. Following the kinase reaction, a 10 μL aliquot of luciferase-luciferin mix (Promega Kinase-Glo) was added and the chemiluminescence signal measured using a Victor2 plate reader (Perkin Elmer). Total ATP consumption was limited to 40-60% and IC50 values of control compounds correlate well with literature references. Substituting PI3Kα with PI3Kβ, PI3Kγ, or PI3Kδ, the inhibitory activity of the compounds for the other isoforms of I3K were measured.
# [2] = molecular target: PI3Kα H1047R (Homo sapiens, UniProt P42336, H1047R); experiment: PI3K Biochemical Assay; settings: PIP2 used as substrate
# PI3Kα H1047R, sequence (P42336 whole entry H1047R): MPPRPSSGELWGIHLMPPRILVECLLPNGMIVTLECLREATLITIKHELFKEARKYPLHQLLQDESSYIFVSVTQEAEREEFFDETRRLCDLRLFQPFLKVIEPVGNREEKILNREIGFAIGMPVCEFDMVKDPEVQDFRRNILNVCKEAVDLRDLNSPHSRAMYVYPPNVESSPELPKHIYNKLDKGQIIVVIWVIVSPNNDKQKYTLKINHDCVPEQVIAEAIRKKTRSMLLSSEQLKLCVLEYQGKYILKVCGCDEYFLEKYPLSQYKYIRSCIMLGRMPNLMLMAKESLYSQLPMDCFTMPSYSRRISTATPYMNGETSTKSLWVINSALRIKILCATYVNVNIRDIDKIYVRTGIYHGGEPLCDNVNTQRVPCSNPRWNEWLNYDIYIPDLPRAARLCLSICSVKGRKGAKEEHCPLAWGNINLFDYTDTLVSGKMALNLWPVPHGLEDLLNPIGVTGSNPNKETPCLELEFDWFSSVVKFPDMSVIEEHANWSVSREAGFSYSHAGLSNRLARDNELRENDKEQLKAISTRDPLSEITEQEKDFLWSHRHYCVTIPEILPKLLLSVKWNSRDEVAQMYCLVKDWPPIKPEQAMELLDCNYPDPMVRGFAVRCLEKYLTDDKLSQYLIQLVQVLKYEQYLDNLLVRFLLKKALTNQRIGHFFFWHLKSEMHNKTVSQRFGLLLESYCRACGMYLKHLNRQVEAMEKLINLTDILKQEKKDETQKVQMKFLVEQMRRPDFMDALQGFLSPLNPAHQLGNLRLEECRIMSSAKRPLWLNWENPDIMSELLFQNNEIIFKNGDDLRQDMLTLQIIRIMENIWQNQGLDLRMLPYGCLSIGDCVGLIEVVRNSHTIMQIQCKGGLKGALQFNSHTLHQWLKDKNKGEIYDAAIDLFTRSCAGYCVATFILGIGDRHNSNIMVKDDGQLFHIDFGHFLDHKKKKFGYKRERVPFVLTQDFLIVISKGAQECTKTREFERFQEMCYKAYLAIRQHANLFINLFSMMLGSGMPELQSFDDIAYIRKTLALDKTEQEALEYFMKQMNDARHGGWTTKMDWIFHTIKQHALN
# PI3Kα H1047R, sequence (P27986 whole entry partner): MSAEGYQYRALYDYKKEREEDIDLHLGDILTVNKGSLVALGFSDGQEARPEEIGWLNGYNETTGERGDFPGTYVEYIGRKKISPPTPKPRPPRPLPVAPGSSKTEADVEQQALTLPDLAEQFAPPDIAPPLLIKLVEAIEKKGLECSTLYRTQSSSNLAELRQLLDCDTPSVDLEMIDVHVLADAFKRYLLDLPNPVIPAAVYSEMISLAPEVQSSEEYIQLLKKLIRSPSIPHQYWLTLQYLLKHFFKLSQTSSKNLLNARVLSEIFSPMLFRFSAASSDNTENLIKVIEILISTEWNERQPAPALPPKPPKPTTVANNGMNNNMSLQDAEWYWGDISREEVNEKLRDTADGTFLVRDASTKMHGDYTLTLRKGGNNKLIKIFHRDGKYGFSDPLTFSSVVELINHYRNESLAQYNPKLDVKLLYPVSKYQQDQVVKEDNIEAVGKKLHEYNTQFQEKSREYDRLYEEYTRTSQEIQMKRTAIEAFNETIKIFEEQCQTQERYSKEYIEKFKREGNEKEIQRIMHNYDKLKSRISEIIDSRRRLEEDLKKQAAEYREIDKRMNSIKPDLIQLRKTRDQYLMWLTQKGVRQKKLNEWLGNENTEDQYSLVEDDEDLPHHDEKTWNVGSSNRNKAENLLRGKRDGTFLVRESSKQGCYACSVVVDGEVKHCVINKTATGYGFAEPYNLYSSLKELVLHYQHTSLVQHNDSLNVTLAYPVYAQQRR
# Protocol: as §1
# [3] = molecular target: PI3Kγ (Homo sapiens, UniProt P48736); experiment: PI3K Biochemical Assay; settings: PIP2 used as substrate
# PI3Kγ, sequence (P48736 whole entry): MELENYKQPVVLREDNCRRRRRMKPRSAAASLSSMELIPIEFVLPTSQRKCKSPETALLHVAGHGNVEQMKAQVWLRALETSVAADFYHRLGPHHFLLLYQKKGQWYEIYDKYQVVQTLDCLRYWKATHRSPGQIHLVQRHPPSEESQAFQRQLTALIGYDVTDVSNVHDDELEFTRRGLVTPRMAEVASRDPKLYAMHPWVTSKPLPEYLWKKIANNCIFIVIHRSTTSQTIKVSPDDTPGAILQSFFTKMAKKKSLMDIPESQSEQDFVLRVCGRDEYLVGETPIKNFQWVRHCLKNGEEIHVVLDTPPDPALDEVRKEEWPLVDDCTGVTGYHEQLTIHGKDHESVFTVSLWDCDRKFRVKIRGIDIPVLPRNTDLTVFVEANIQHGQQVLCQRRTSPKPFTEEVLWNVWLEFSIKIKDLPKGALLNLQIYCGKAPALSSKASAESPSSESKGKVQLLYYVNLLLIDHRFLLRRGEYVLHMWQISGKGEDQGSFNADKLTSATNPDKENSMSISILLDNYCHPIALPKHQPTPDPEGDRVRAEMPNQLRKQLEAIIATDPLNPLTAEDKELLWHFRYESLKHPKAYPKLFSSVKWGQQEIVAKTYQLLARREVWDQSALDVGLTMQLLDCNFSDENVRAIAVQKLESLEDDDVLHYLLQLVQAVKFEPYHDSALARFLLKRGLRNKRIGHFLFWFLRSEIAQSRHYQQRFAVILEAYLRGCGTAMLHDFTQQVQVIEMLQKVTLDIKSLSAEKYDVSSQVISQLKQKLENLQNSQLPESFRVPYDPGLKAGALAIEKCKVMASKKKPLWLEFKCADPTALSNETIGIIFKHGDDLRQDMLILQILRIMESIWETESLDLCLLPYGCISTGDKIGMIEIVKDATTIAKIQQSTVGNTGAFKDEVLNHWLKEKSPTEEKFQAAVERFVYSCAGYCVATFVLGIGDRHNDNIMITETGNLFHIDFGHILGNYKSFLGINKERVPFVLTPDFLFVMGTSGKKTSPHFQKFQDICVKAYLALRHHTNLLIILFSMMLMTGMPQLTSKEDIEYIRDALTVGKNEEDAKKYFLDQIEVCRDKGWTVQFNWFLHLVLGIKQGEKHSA
# Protocol: as §1
# [4] = tested on: pAKT (T308) in PC-3 cells (PTEN-null); experiment: pAKT (T308) ELISA Assay; format: cell-based; settings: Homo sapiens
# Protocol: MCF-7 cells (ATCC) cells were seeded at 24000 cells per well in 96-well plates (Corning, 3904) in DMEM (Cellgro) containing 10% FBS (Cellgro), 1% NEAA (Cellgro) and 1% penicillin-streptomycin (Cellgro). Cells were incubated at 37° C., 5% CO2 for 48 h, and the growth medium was replaced with serum-free DMEM or in medium containing 0.4% BSA. Serial dilutions of the test Compound in 0.3% DMSO (vehicle) were added to the cells and incubated for 3 h. At the end of the incubation period, cells were stimulated for 10 minutes by the addition of L-IGF (Sigma, I-1271) at a final concentration of 100 ng/ml. Afterwards, media was discarded from cell plates and 110 μl/well of cold lysis buffer (see table below) were added. Cell plates were incubated on ice and then put on shaker in 4° C. cold room for 1 h. Two capture plates (Thermo Scientific, Reacti-bind plate, 15042) were prepared for each cell plate by pre-coating with capture Akt antibody from the two sandwich ELISA antibody pairs used (Cell Signaling Technology 7142 and 7144). The Akt capture antibodies were diluted 1:100 in PBS and 100 μl of diluted capture antibody was added per well. Capture plates were incubated at 4 C overnight. […] After 1 h of cell lysis, 85 μl of cell lysate/well was transferred to the capture plate for detection of pAkt(T308). 15 μl of cell lysate was transferred from same well to the second capture plate for detection of total Akt1. After incubation overnight at 4° C., plates were washed 3 times with 200 μL TBST. Primary antibodies, diluted 1:100 in blocking buffer, were added to the corresponding capture plates for pAkt(T308) (Cell Signaling Technology, 7144) and total Akt1 (Cell Signaling Technology, 7142) detection and incubated at room temperature for 1 h. Plates were washed 3 times with 200 μL of TBST. Goat anti-mouse secondary antibody (Cell Signaling Technology, 7076) conjugated to HRP was diluted 1:1000 in blocking buffer and 100 μl were added to each well and incubated for 30 minutes at room temperature. Plates were then washed 3 times with 200 μL of TBST. 100 μL of SuperSignal ELISA Femto stable peroxidase solution (Thermo Scientific, 37075) was added to each well. After 1 minute incubation, chemiluminescence was read on a Wallac Victor2 1420 multilabel counter. IC50 values were determined based on the ratio of pAkt(T308) to total Akt1 signal for Compound treated wells, normalized to the DMSO-treated control wells.
# In another embodiment, the pAKT ELISA Assay was performed by seeding cells onto 96-well plates (Corning, 3904) in their respective growth media at the densities listed in Table 5. Cells were incubated at 37° C., 5% CO2 for 48 h (except MDA-MB-453 cells which were cultured in the absence of CO2). Compounds were serially diluted in DMSO and subsequently diluted in serum-free DMEM. Test compounds were added to cells in serum-free DMEM at a final concentration of 0.3% DMSO and incubated for 3 h. Cells were lysed with 130 μL of ice-cold RIPA lysis buffer (50 mM Tris-HCl, pH 7.5; 0.5% sodium deoxycholic acid; 1% Triton X-100; 0.1% SDS; 150 mM NaCl) with protease and phosphatase inhibitors (1 mM EDTA, 1 mM NaF, 20 mM β-glycerophosphate, 1 mM Na-orthovanadate, Complete-Mini EDTA-free, Roche, 11836170001, and Phosphatase Inhibitor Cocktail I, Sigma, P2850), directly in 96-well plates. Cells were lysed on ice for 60-120 min at 4° C. The supernatants were added directly to capture ELISA plates previously pre-coated with rabbit anti-AKT capture antibody. ELISA assays for pAKT(T308) and total AKT were performed with the pAKT(T308) ELISA kit (Cell Signaling Technology, 7144) and AKT1 ELISA kit (Cell Signaling Technology, 7142). For the pAKT(T308) ELISA, 85 μL of cell lysate was added to each well. For the total AKT1 ELISA, 15 μL of cell lysate and 85 μL of Starting Block buffer (Pierce, 37543) were added to each well.
# [5] = molecular target: PI3Kβ (Homo sapiens, UniProt P42338); experiment: PI3K Biochemical Assay; settings: PIP2 used as substrate
# PI3Kβ, sequence (P42338 whole entry): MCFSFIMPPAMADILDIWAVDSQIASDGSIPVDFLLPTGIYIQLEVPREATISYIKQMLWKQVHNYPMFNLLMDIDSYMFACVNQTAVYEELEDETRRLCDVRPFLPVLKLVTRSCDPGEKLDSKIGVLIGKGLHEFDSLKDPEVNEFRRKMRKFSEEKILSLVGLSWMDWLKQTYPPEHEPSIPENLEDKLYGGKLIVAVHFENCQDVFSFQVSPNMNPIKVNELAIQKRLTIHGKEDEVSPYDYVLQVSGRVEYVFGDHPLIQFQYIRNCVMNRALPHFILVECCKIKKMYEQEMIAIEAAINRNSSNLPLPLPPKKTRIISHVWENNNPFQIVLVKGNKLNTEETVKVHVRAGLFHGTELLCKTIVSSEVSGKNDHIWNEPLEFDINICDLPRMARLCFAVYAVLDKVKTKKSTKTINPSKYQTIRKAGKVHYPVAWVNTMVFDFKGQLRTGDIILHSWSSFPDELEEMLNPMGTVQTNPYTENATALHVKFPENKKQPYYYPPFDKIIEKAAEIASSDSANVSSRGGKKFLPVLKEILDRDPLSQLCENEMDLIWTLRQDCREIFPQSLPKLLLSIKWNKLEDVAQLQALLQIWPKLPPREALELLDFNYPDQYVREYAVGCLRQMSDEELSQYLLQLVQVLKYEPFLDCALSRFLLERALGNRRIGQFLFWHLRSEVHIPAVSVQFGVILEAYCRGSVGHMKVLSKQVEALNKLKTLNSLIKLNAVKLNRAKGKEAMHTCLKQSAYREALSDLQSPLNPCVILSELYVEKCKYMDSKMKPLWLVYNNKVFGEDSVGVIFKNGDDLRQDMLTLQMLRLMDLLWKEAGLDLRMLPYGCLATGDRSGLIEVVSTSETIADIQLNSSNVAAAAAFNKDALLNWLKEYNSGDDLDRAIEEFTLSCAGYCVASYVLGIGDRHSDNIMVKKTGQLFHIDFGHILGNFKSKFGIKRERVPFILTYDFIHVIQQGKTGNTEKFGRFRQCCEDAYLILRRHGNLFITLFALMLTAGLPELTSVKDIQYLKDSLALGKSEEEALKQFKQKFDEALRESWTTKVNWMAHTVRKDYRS
# PI3Kβ, sequence (P27986 whole entry partner): as the sequence (P27986 whole entry partner) above
# Protocol: as §1, with “Total ATP consumption was limited to 40-60% and IC50 values of control compounds correlate well with literature references.” left out
# [6] = IGF1 stimulation, read-out: pAKT (T308) IC50 PC# PTEN-null IGF1
# [7] = LPA stimulation, read-out: pAKT (T308) IC50 PC# PTEN-null LPA
# PI3Kδ, sequence (O00329 whole entry): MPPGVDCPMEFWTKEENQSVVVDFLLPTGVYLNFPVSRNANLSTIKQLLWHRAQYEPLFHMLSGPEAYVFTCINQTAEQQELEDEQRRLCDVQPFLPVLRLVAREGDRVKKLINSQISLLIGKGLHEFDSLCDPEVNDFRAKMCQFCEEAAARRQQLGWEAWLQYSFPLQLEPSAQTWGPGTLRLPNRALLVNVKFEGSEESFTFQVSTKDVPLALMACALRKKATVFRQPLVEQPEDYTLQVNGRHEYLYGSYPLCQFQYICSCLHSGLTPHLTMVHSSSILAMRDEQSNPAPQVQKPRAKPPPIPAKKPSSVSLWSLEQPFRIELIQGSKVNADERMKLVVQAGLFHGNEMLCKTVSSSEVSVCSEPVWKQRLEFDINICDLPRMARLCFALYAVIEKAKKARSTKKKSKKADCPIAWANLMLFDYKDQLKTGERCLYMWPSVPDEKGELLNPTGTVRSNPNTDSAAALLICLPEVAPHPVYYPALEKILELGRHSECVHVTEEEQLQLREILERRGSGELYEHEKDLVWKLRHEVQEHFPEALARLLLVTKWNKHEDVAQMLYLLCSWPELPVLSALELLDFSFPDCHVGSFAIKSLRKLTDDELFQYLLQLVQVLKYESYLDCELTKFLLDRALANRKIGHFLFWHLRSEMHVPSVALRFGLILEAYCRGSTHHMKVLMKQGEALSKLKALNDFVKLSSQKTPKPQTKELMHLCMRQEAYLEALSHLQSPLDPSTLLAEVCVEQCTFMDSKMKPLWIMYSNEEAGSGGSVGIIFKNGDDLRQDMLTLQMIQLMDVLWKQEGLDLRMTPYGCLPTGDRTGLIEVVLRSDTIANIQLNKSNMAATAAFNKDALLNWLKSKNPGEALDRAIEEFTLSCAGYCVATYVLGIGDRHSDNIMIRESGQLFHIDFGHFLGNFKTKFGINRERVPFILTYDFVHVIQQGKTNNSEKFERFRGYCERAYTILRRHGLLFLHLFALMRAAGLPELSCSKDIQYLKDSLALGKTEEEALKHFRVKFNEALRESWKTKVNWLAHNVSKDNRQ
# PI3Kδ, sequence (P27986 whole entry partner): as the sequence (P27986 whole entry partner) above
SMILES,IC50 [1] [nM],IC50 [2] [nM],IC50 [3] [nM],"IC50 [4, 6] [nM]","IC50 [4, 7] [nM]",IC50 [5] [nM]
COc1ccc2c(N3CCOc4ccc(-c5cnc6nc(C)[nH]c6c5)cc4C3)nc(CN(C)C)nc2c1 [Compound 696],149,5,1800,1680,1860,1310
Cc1nc2ncc(-c3ccc4c(c3)CN(c3nc(CN(C)C)nc5c3CC(C)(C)CC5)CCO4)cc2[nH]1 [Compound 693],575,3,1120,,,> 3000
CCNc1nc2ccc(-c3ccc4c(c3)CN(c3ncnc(NCC)c3C)CCO4)cc2[nH]1 [Compound 699],440,6,158,2120,3800,1740
Cc1nc2cc(-c3ccc4c(c3)CN(c3nc(CN(C)C)nc(C)c3C(C)C)CCO4)cnc2[nH]1 [Compound 694],831,5,1850,231,571,> 3000
CCNc1nc2ccc(-c3ccc4c(c3)CN(c3ccnc5cc(F)ccc35)CCO4)cc2[nH]1 [Compound 698],162,7,159,2870,4540,1560
